Data published in patent US11807668B2, “Use of citronellol in preparing preparation for promoting expression of virulence gene Toxa of Pseudomonas aeruginosa” (priority 2021, dated 2023).

Columns and labels:
[1] = tested on: Pseudomonas aeruginosa PAO1; assay: Effects of citronellol on the growth of Pseudomonas aeruginosa PAO1 (growth curve, OD600, Bioscreen C); type: cell-based
Procedure: (§1) Preparation of PAO1[(Pseudomonas aeruginosa) PAO1] bacterial suspension: a culture solution of Pseudomonas aeruginosa PAO1 in an exponential growth phase was sampled, centrifuged, washed once with a PBS buffer, resuspended in PBS, and diluted to 10^8 CFU/mL to obtain the PAO1 bacterial suspension.
An LB culture medium and citronellol […] were added to test tubes respectively, and the PAO1 bacterial suspension in the exponential growth phase was inoculated to reach a total volume of 10 mL respectively. The bacterial concentration of PAO1 was each 10^6′ CFU/mL, and the concentration of citronellol was 0 (control), 0.313 μL/mL, 0.625 μL/mL, 1.25 μL/mL, and 2.5 μL/mL, respectively. Samples from several test groups were added to a honeycomb culture plate dedicated to an automatic growth curve analyzer (Bioscreen C), and 350 μL of culture solution was added to each well, with three parallel for each test group. The honeycomb culture plate was placed in the automatic growth curve analyzer, and cultured over shaking at 37° C. for 3 days, and OD600 was measured every hour. Taking OD600 as the ordinate and a culture time as the abscissa, the growth curve of PAO1 under the action of citronellol was drawn to study the effect of the citronellol on the growth of PAO1. The results were shown as in FIG. 1.

[2] = tested on: key genes of a quorum-sensing system of Pseudomonas aeruginosa and virulence genes regulated thereby (PAO1 cells); assay: Effects of citronellol on the expression of key quorum-sensing genes and virulence genes regulated thereby (real-time fluorescent quantitative PCR); type: cell-based; conditions: 1.25 μL/mL citronellol for 5 h
Procedure: as §1
The PAO1 bacterial suspension in a logarithmic growth phase was added to 50 mL of sterile LB liquid culture medium to reach a final concentration of 10^6 CFU/mL for the bacterial solution. Citronellol (β-citronellol) was added to reach the final concentrations of 0 (three biological replicates in the control group were named A1, A2, and A3, respectively) and 1.25 μL/mL (three biological replicates in the test groups were named B1, B2, B3). Each group was cultured at 37° C. and 180 rpm for 5 h, and centrifuged to collect bacteria, which were then quick-frozen at −80° C. for later use.
Total RNAs were extracted from the bacteria by a Trizol (Thermo Fisher Scientific) kit.
After extraction, the purity of the RNAs were detected with an ultra-micro spectrophotometer (Implen, Munich, Germany). An A260/A280 value of each RNA sample should be between 1.8 and 2.0. Reverse transcription and real-time fluorescent quantitative PCR amplification were carried out by using a PrimeScript RT Master Mix kit (Takara, Dalian, China) and an ETC 811 PCR instrument (Eastwin Life Sciences, Inc.). A q-PCR reaction system included Takara SYBR Premix Ex TaqII (Tli RNaseH Plus) (Code No. RR820A), and PCR procedures included: pre-denaturation at 95° C. for 30 s; and denaturation at 95° C. for 5 s and annealing at 60° C. for 34 s, 40 cycles. Based on 10 gene sequences published on the website of GenBank, primers for q-PCR were designed by using software Primer Premier 5.0, and at the same time, a 16S rRNA gene was used as an internal reference gene.

Q: For `CC(C)=CCCC(C)CCO` (stereo not drawn) [citronellol, β-citronellol], which “time point when the absorbance value of the culture solution differs greatly (time to maximum absorbance)” value ([1]; 0.313 μL/mL) is on record?
A: 26 h

Q: And the “time point when the absorbance value of the culture solution differs greatly (time to maximum absorbance)” value ([1]; 0.625 μL/mL)?
A: 37 h

Q: And the “time point when the absorbance value of the culture solution differs greatly (time to maximum absorbance)” value ([1]; 1.25 μL/mL)?
A: 39 h

Q: And the “time point when the absorbance value of the culture solution differs greatly (time to maximum absorbance)” value ([1]; 2.5 μL/mL)?
A: 48 h

Q: And the “inhibitory effect on the growth of PAO1” value ([1]; citronellol at 0.313, 0.625, 1.25 and 2.5 μL/mL, LB, 37° C., 3 days, OD600)?
A: a certain yet weak inhibitory effect

Q: What about the “difference in lag phase and logarithmic growth phase on the PAO1 growth curves” value ([1]; citronellol treatment groups at different concentrations (0.313-2.5 μL/mL)) of the same molecule?
A: no significant difference

Q: What about the “expression of signaling molecule receptor protein gene lasR” value [2] of the same molecule?
A: significantly up-regulated

Q: And the “expression of signaling molecule receptor protein gene pqsR” value [2]?
A: significantly down-regulated

Q: What about the “expression of signaling molecule synthase gene lasI” value [2] of the same molecule?
A: significantly up-regulated

Q: And the “expression of signaling molecule synthase gene pgsA” value [2]?
A: significantly down-regulated

Q: What about the “transcription level of lasA” value [2] of the same molecule?
A: up-regulated, but with a less significant change

Q: What about the “transcription level of signaling molecule receptor protein gene rhIR” value [2] of the same molecule?
A: significantly up-regulated

Q: What about the “transcription level of signaling molecule synthase gene rhII” value [2] of the same molecule?
A: changes a little

Q: What about the “transcription level of toxA” value [2] of the same molecule?
A: significantly up-regulated

Q: And the “transcription of virulence gene chiC” value [2]?
A: inhibited

Q: What about the “transcription of virulence gene lasB” value [2] of the same molecule?
A: inhibited

Q: And the “transcription of virulence gene phzM” value [2]?
A: inhibited

Q: And the “transcription of virulence gene psIB” value [2]?
A: inhibited
